Test results: publication PMC5792488, “Structural basis of the molecular ruler mechanism of a bacterial glycosyltransferase” (Nature Communications, 2018)

Columns and labels:
[1] = biological target: T1, PglH (Campylobacter jejuni, UniProt Q0P9C5); experiment: crystal structure of ternary complex with synthetic LLO ([…] Å); IC50 with purified PglH; assay type: biochemical
T1 construct: PglH with C-terminal His10 tag

[2] = biological target: T1, PglH; experiment: ([…] Å); IC50 with purified PglH; assay type: biochemical

T1 sequence (Q0P9C5 whole entry): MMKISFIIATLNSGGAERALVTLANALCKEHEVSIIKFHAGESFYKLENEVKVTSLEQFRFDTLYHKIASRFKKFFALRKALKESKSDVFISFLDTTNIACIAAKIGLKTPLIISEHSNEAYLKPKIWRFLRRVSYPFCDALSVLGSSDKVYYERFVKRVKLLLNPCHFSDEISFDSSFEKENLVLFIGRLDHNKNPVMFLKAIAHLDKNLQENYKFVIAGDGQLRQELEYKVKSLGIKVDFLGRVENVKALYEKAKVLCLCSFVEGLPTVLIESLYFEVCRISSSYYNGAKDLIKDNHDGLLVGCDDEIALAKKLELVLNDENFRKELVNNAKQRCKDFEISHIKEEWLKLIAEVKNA

Structure (SMILES) | IC50 [1] [mM] | IC50 [2] [µM]
O=c1ccn([C@@H]2O[C@H](COP(=O)(O)OP(=O)(O)O)[C@@H](O)[C@H]2O)c(=O)[nH]1 [UDP] | 1.02 ± 0.087 | 
CC(=O)N[C@@H]1[C@@H](O)[C@@H](O)[C@@H](CO)O[C@@H]1CP(=O)(O)OP(=O)(O)OC[C@@H]1O[C@@H](n2ccc(=O)[nH]c2=O)[C@H](O)[C@@H]1O [UDP-CH2-GalNAc] |  | 303 ± 24
